Test results as given in PMC4273980 (ACS Chemical Biology, 2014).
Entries after “also recorded” stand apart in the source; their conditions may differ.

Molecular target: T1, hP2Y14R (Homo sapiens, UniProt Q15391)
T1 sequence (Q15391 1-338): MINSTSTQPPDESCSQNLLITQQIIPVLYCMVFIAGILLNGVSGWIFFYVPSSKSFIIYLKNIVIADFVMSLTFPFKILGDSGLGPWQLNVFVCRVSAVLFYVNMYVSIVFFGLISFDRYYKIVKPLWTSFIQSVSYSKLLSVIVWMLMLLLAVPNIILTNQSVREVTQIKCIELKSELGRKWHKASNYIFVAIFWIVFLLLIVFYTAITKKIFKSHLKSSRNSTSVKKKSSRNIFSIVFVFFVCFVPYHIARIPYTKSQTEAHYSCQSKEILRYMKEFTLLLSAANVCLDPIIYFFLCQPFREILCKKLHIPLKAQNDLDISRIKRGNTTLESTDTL
Assay: Antagonism of 2
Format: cell-based
Settings: not given

| Structure (SMILES) | Ki |
| --- | --- |
| CCOC(=O)c1cc(-c2ccc(C3CCNCC3)cc2)c2ccc(-c3ccc(C(F)(F)F)cc3)cc2c1 [compound 19] | 120 ± 8 nM |
| C#CCCN1CCC(c2ccc(-c3cc(C(=O)O)cc4cc(-c5ccc(C(F)(F)F)cc5)ccc34)cc2)CC1 [compound 20] | 2.7 ± 1.2 nM |
| C#CCCCCN1CCC(c2ccc(-c3cc(C(=O)O)cc4cc(-c5ccc(C(F)(F)F)cc5)ccc34)cc2)CC1 [compound 22] | 13 ± 1.1 nM |
| C=C1CCC[N+]12CCC(c1ccc(-c3cc(C(=O)[O-])cc4cc(-c5ccc(C(F)(F)F)cc5)ccc34)cc1)CC2 (centres unmarked) [compound 23] | 2 ± 0.2 nM |
| C#CCCC(=O)N1CCC(c2ccc(-c3cc(C(=O)O)cc4cc(-c5ccc(C(F)(F)F)cc5)ccc34)cc2)CC1 [compound 24] | 6.7 ± 2.2 nM |
| C#CCCCCC(=O)N1CCC(c2ccc(-c3cc(C(=O)O)cc4cc(-c5ccc(C(F)(F)F)cc5)ccc34)cc2)CC1 [compound 25] | 8.3 ± 1.9 nM |
| CC(C)(C)OC(=O)NCCCN1CCC(c2ccc(-c3cc(C(=O)O)cc4cc(-c5ccc(C(F)(F)F)cc5)ccc34)cc2)CC1 [compound 26] | 26 ± 6 nM |
| NCCCN1CCC(c2ccc(-c3cc(C(=O)O)cc4cc(-c5ccc(C(F)(F)F)cc5)ccc34)cc2)CC1 [compound 27] | 14 ± 2.4 nM |
| O=C(CCCCCNC(=O)COc1ccc(/C=C/C2=CC3=Cc4ccc(-c5cccs5)n4[B-](F)(F)[N+]3=C2)cc1)NCCCn1cc(CCCCN2CCC(c3ccc(-c4cc(C(=O)O)cc5cc(-c6ccc(C(F)(F)F)cc6)ccc45)cc3)CC2)nn1 [compound 32] | > 100 nM |

Same assay, conditions: P2Y14R-CHO cells

| Structure (SMILES) | antagonist potency / affinity at P2Y14R, in words |
| --- | --- |
| O=C(CCCCCNC(=O)COc1ccc(/C=C/C2=CC3=Cc4ccc(-c5cccs5)n4[B-](F)(F)[N+]3=C2)cc1)NCCCn1cc(CCCCN2CCC(c3ccc(-c4cc(C(=O)O)cc5cc(-c6ccc(C(F)(F)F)cc6)ccc45)cc3)CC2)nn1 [compound 32] | much weaker; also recorded: low affinity |

Same assay, conditions: relative to 6

| Structure (SMILES) | fold weaker as an antagonist than free carboxylate analogue 6 |
| --- | --- |
| CCOC(=O)c1cc(-c2ccc(C3CCNCC3)cc2)c2ccc(-c3ccc(C(F)(F)F)cc3)cc2c1 [compound 19] | 400 fold |

Molecular target: T2, P2Y14R (Homo sapiens, UniProt Q15391)
T2 sequence (Q15391 1-338): T1 sequence (Q15391 1-338)
Assay: Flow cytometry
Settings: 10 μM competing ligand, 30 min preincubation; 10 nM 30

| Structure (SMILES) | effect of competing ligand on labeling of P2Y14R-CHO cells by 30, in words |
| --- | --- |
| O=c1ccn([C@@H]2O[C@H](COP(=O)(O)OP(=O)(O)O)[C@@H](O)[C@H]2O)c(=O)[nH]1 [compound 1, uridine-5′-diphosphate] | largely prevented the labeling |
| O=C(O)c1cc(-c2ccc(C3CCNCC3)cc2)c2ccc(-c3ccc(C(F)(F)F)cc3)cc2c1 [compound 6, 4-(4-(piperidin-4-yl)-phenyl)-7-(4-(trifluoromethyl)-phenyl)-2-naphthoic acid] | largely prevented the labeling |
| O=C(O)[C@H]1O[C@H](OP(=O)(O)OP(=O)(O)OC[C@H]2O[C@@H](n3ccc(=O)[nH]c3=O)[C@H](O)[C@@H]2O)[C@H](O)[C@@H](O)[C@@H]1O [compound 36, uridine-5′-diphosphoglucuronic acid] | largely prevented the labeling |
| CNc1ncnc2c1ncn2[C@H]1C[C@H](OP(=O)(O)O)[C@@H](COP(=O)(O)O)O1 [compound 37] | failed at 10 μM to prevent binding of 30 |
| S=C=Nc1cccc(NC(=S)NCCCCNC(=S)Nc2cccc(N=C=S)c2)c1 [compound 38] | failed at 10 μM to prevent binding of 30 |
| Cc1ccc(C(=O)Nc2ccc(S(=O)(=O)O)c3cc(S(=O)(=O)O)cc(S(=O)(=O)O)c23)cc1NC(=O)c1cccc(NC(=O)Nc2cccc(C(=O)Nc3cc(C(=O)Nc4ccc(S(=O)(=O)O)c5cc(S(=O)(=O)O)cc(S(=O)(=O)O)c45)ccc3C)c2)c1 [suramin] | only a minor reduction |
